Reference: patent publication EP2653156A1, “Pharmaceutical emulsion composition and use thereof” (College of Pharmacy of Taif University, priority 2012, dated 2013)

Test: Particle size distribution of insulin and/or L-arginine solutions by photon correlation spectroscopy (Malvern Zetasizer Nano-ZS)
Assay type: physicochemical
Conditions: for Median particle size D(i), Stability in form of particle size / Median particle size D(i): by intensity; for Median particle size D(i), Stability in form of particle size / Median particle size D(i) / Median particle size (n, 0.5) D(n), Stability in form of particle size / Median particle size (n, 0.5) D(n): unit nm; for Median particle size (n, 0.5) D(n), Stability in form of particle size / Median particle size (n, 0.5) D(n): by number
Protocol: Determination of the particle size distribution of Insulin and/or L-arginine by number as D (n, 0.5) and by intensity as D (i, 0.5) using nanosizer
The particle size distribution of two separate solutions of insulin (1 U/ml) prepared using 0.1 M HCl and L-arginine (1 mg/ml) prepared in distilled water was determined. In addition, a mixture of particles prepared by mixing insulin and L-arginine previous solutions in 1:1 v/v ratio was assessed by photon correlation spectroscopy using a Malvern Zetasizer Nano-ZS series (Malvern Instruments, UK). Collective 10 readings were performed three times on a sample at 25 °C with a detection angle of 173°. The median and standard deviations were calculated by the instrument. The viscosity was determined using a Vibro viscometer (SV-10, A&D Company, Japan) at 25°C.

[1] = Table 1 (by number), Room temp for 24 hr
[2] = Table 1 (by number), stability at 50°C for 2 hrs
[3] = Table 1 (by number), stability at 50 °C for 24 hrs
[4] = Table 2 (by intensity), Room temp for 24 hr
[5] = Table 2 (by intensity), stability at 50 °C for 2 hrs
[6] = Table 2 (by intensity), stability at 50°C for 24 hrs

SMILES | Pdl [1] | Pdl [2] | Pdl [3] | Pdl [4] | Pdl [5] | Pdl [6] | Median particle size D(i), Stability in form of particle size (50 °C for 2 hrs) [nm] | Median particle size D(i), Stability in form of particle size (50°C for 24 hrs) [nm] | Median particle size D(i) (Room temp for 24 hr) [nm] | Median particle size (n, 0.5) D(n), Stability in form of particle size (50°C for 2 hrs) [nm] | Median particle size (n, 0.5) D(n), Stability in form of particle size (50 °C for 24 hrs) [nm] | Median particle size (n, 0.5) D(n) (Room temp for 24 hr) [nm] | particle size (in the aqueous solution)
N=C(N)NCCC[C@H](N)C(=O)O [L-arginine (1 mg/ml), L-arginine] | 0.474 | 0.517 | 0.31 | 0.474 | 0.517 | 0.31 | 115 | 148 | 122 | 102 | 93.8 | 74.8 | 100-150 nm
N=C(N)NCCC[C@H](N)C(=O)O [L-arginine (10mg/ml), L-arginine] | 0.442 | 0.522 | 0.436 | 0.442 | 0.522 | 0.436 | 174 | 126 | 129 | 85.8 | 80.6 | 109 | –
